Counter-ions that a name gives are not always drawn.
Experiments:
oak = assay: Experiment 3 foliar application to naturally growing shrubs; assay type: in vivo, Quercus serrata Thunb; conditions: after 3 months
Text: (§1) The detail of the assessment made in the following Experiments of the invention was as follows:
(§2) Four months after treatment, evaluation was made for inhibition of reproduction expressed in terms of symbols ranging from (-) to (+++) where (-) means no reproduction, namely complete suppression of reproduction, (±) remarkable suppression of reproduction; (+) considerable suppression of reproduction; (++) medium supprestion of reproduction; and (+++) no suppression of reproduction.
(§3) The compounds of the invention and other compounds listed in Table 5. were diluted to prescribed concentrations and sprayed onto naturally growing shrubs by foliar application in an amount of 150 liter per 10 are.
(§4) 0.1% of octylphenyl polyoxyethanol was added as the surfactant. The killing index (0, no effect; 5, death) after 1 month and 3 months, and the reproduction-inhibiting effect (-, no reproduction; +++, maximum reproduction) after 3 months were determined.

Japanese prickly ash = assay: as above; assay type: in vivo, Xanthoxylum piperitum DC.; conditions: after 3 months
Text: as §1, §2, §3, §4

white clover = assay: Experiment 1 foliar application to naturally growing weeds; assay type: in vivo, Trifolium repens L.; conditions: 4 months
Text: as §1, §2
(§5) The compounds of the invention and other compounds for comparison listed in Table 3 were diluted to prescribed concentrations and sprayed to naturally growing weeds by foliar application in an amount of 150 liter per 10 are.
(§6) 0.1% of octylphenyl polyoxyethanol was added as a surfactant.
(§7) The killing index (0, no effect, 5, death) after 21 days, and the reproduction-inhibiting effect (-, no reproduction; +++, maximum reproduction) after 2 months (manna grass and cockspar grass) and 4 months (other weeds) were determined.

kumaichigo = assay: Experiment 2 foliar application in Japanese cypress afforested land; assay type: in vivo, Rubus crataegifolius Bunge; conditions: 0.125%
Protocol: as §1
(§8) The compounds of the invention and other compounds listed in Table 4. were diluted to prescribed concentrations and sprayed to shrubs by foliar application in a Japanese cypress afforested land in an amount of 150 liter per 10 are.
(§9) After 30 days and 3 months, the killing index (0, no effect; 5, death) was determined.
(§10) The heights of plants were 50-70 cm. for Japanese cypress, about 50 cm. for chestnut, 50-90 cm. for miyakozasa, about 100 cm. for eulalia and 70-100 cm. for kumaichigo, respectively.

Japanese bush cranberry = assay: Experiment 3 foliar application to naturally growing shrubs; assay type: in vivo, Viburnum dilatatum Thunb.; conditions: for Reproduction-inhibiting: after 3 months
Text: as §1, §2, §3, §4

manna grass = assay: Experiment 1 foliar application to naturally growing weeds; assay type: in vivo, Digitaria adsceudes Henr.; conditions: 2 months
Text: as §1, §2, §5, §6, §7

cockspar grass = assay: as above; assay type: in vivo, Echinochloa Crusgalli P. Beauv.; conditions: 2 months
Text: as §1, §2, §5, §6, §7

chigaya = assay: as above; assay type: in vivo, Imperata cylindrica Beauv.; conditions: for Reproduction-inhibiting effect: 4 months
Text: as §1, §2, §5, §6, §7

eulalia = assay: Experiment 2 foliar application in Japanese cypress afforested land; assay type: in vivo, Miscanthus sinensis Andress.; parameters: key: 0 = no effect, 5 = death; conditions: 0.125%
Protocol: as §1, §8, §9, §10

torch azalea = assay: Experiment 3 foliar application to naturally growing shrubs; assay type: in vivo, Rhododendoron Kaempferi Planch.; conditions: after 3 months
Text: as §1, §2, §3, §4

purple nutsedge = assay: Experiment 1 foliar application to naturally growing weeds; assay type: in vivo, Cyperus rotundus L.; conditions: 4 months
Text: as §1, §2, §5, §6, §7

lace shrub = assay: Experiment 3 foliar application to naturally growing shrubs; assay type: in vivo, Stephanandra incisa Zabel; conditions: for Reproduction-inhibiting: after 3 months
Text: as §1, §2, §3, §4

yamazakura = assay: as above; assay type: in vivo, Prunus donarium Sieb. var. spontanae Makino; conditions: after 3 months
Text: as §1, §2, §3, §4

warunasubi = assay: Experiment 1 foliar application to naturally growing weeds; assay type: in vivo, Solanum carolinensis L.; conditions: 4 months
Text: as §1, §2, §5, §6, §7

kiichigo = assay: Experiment 3 foliar application to naturally growing shrubs; assay type: in vivo, Rubus palmatsu Thunb. forma coptophyllus Makino; conditions: for Reproduction-inhibiting: after 3 months
Text: as §1, §2, §3, §4

azumanezasa = assay: Experiment 1 foliar application to naturally growing weeds; assay type: in vivo, Pleioblastus Chino Makino; conditions: 4 months
Text: as §1, §2, §5, §6, §7

yabugarashi = assay: as above; assay type: in vivo, Cayratia japonica Houtt.; conditions: 4 months
Text: as §1, §2, §5, §6, §7

hedge bindweed = assay: as above; assay type: in vivo, Calystegis hederacea Wall.; conditions: 4 months
Text: as §1, §2, §5, §6, §7

water hyacinth = assay: Experiment 5 foliar application to water hyacinths; assay type: in vivo, Eichhornia crassipes Solms; conditions: 3 months
Text: as §1, §2
Water was placed in 20 cm.×30 cm. plastic vessels and a liquid fertilizer was added thereto. Two water hyacinths were floated in each vessel.
0.1 or 0.2% aqueous solutions of each of the compounds of the invention listed in Table 7 were sprayed by foliar application in an amount of 100 liter per 10 are. As a surfactant, 0.1% of octylphenyl polyoxyethanol was added.
The killing index (0, no effect; 5, death) after 21 days and 3 months, and the reproduction-inhibiting effect (-, no reproduction; +++, maximum reproduction) after 3 months were determined.

CP(=O)(O)CC[C@H](N)C(=O)O [L-2-Amino-4-methylphosphinobutanoic acid monodiethanolammoni] [L-2-Amino-4-methylphosphinobutanoic acid monodiethanolammonium salt]
++: Reproduction-inhibiting (oak; 0.05%) | Reproduction-inhibiting (Japanese bush cranberry; 0.1%) | Reproduction-inhibiting effect (manna grass; 0.05%) | Reproduction-inhibiting effect (cockspar grass; 0.05%) | Reproduction-inhibiting effect (chigaya; 0.05%) | Reproduction-inhibiting (lace shrub; 0.05%) | Reproduction-inhibiting (yamazakura; 0.05%) | Reproduction-inhibiting (kiichigo; 0.05%) | Reproduction-inhibiting effect (azumanezasa; 0.05%) | Reproduction-inhibiting effect (yabugarashi; 0.05%) | Reproduction-inhibiting effect (hedge bindweed; 0.1%)
+++: Reproduction-inhibiting (Japanese prickly ash; 0.05%) | Reproduction-inhibiting effect (white clover; 0.05%) | Reproduction-inhibiting (Japanese bush cranberry; 0.05%) | Reproduction-inhibiting (torch azalea; 0.05%) | Reproduction-inhibiting effect (purple nutsedge; 0.05%) | Reproduction-inhibiting effect (warunasubi; 0.05%) | Reproduction-inhibiting effect (hedge bindweed; 0.05%)
+: Reproduction-inhibiting effect (purple nutsedge; 0.1%) | Reproduction-inhibiting effect (warunasubi; 0.1%) | Reproduction-inhibiting effect (yabugarashi; 0.1%) | Reproduction-inhibiting effect (hedge bindweed; 0.2%)
-: Reproduction-inhibiting (oak; 0.1%) | Reproduction-inhibiting (oak; 0.2%) | Reproduction-inhibiting (Japanese prickly ash; 0.2%) | Reproduction-inhibiting effect (white clover; 0.1%) | Reproduction-inhibiting effect (white clover; 0.2%) | Reproduction-inhibiting (Japanese bush cranberry; 0.2%) | Reproduction-inhibiting effect (manna grass; 0.1%) | Reproduction-inhibiting effect (manna grass; 0.2%) | Reproduction-inhibiting effect (cockspar grass; 0.1%) | Reproduction-inhibiting effect (cockspar grass; 0.2%) | Reproduction-inhibiting effect (chigaya; 0.1%) | Reproduction-inhibiting effect (chigaya; 0.2%) | Reproduction-inhibiting (torch azalea; 0.1%) | Reproduction-inhibiting (torch azalea; 0.2%) | Reproduction-inhibiting (lace shrub; 0.1%) | Reproduction-inhibiting (lace shrub; 0.2%) | Reproduction-inhibiting (yamazakura; 0.1%) | Reproduction-inhibiting (yamazakura; 0.2%) | Reproduction-inhibiting (kiichigo; 0.1%) | Reproduction-inhibiting (kiichigo; 0.2%) | Reproduction-inhibiting effect (azumanezasa; 0.1%) | Reproduction-inhibiting effect (azumanezasa; 0.2%)
3.5: Killing index (eulalia; after 30 days) | Killing index (lace shrub; 0.05%, after 30 days) | Killing index (kiichigo; 0.05%, after 30 days)
4.5: Killing index (Japanese prickly ash; 0.1%) | Killing index (kumaichigo; after 30 days) | Killing index (Japanese bush cranberry; 0.1%, after 30 days)
±: Reproduction-inhibiting (Japanese prickly ash; 0.1%) | Reproduction-inhibiting effect (purple nutsedge; 0.2%) | Reproduction-inhibiting effect (warunasubi; 0.2%) | Reproduction-inhibiting effect (yabugarashi; 0.2%)

CP(=O)(O)CCC(N)C(=O)O (racemic) [DL-2-Amino-4-methylphosphinobutanoic acid monodiethanolammon] [DL-2-Amino-4-methylphosphinobutanoic acid monodiethanolammonium salt]
1.5: Killing index (kumaichigo; after 3 months) | Killing index (eulalia; after 3 months)
+: Reproduction-inhibiting effect (purple nutsedge; 0.2%) | Reproduction-inhibiting effect (warunasubi; 0.2%) | Reproduction-inhibiting effect (azumanezasa; 0.1%)
-: Reproduction-inhibiting (oak; 0.2%) | Reproduction-inhibiting (Japanese prickly ash; 0.2%) | Reproduction-inhibiting effect (white clover; 0.2%) | Reproduction-inhibiting effect (manna grass; 0.2%) | Reproduction-inhibiting effect (cockspar grass; 0.2%) | Reproduction-inhibiting effect (chigaya; 0.2%) | Reproduction-inhibiting (torch azalea; 0.2%) | Reproduction-inhibiting (lace shrub; 0.2%) | Reproduction-inhibiting (yamazakura; 0.2%) | Reproduction-inhibiting (kiichigo; 0.2%) | Reproduction-inhibiting effect (azumanezasa; 0.2%)
2.5: Killing index of Upperground parts (chigaya; 0.05%, 21 days)
+++: Reproduction-inhibiting (oak; 0.05%) | Reproduction-inhibiting (Japanese prickly ash; 0.05%) | Reproduction-inhibiting effect (white clover; 0.05%) | Reproduction-inhibiting effect (white clover; 0.1%) | Reproduction-inhibiting (Japanese bush cranberry; 0.05%) | Reproduction-inhibiting effect (manna grass; 0.05%) | Reproduction-inhibiting effect (cockspar grass; 0.05%) | Reproduction-inhibiting effect (chigaya; 0.05%) | Reproduction-inhibiting (torch azalea; 0.05%) | Reproduction-inhibiting effect (purple nutsedge; 0.05%) | Reproduction-inhibiting effect (purple nutsedge; 0.1%) | Reproduction-inhibiting (lace shrub; 0.05%) | Reproduction-inhibiting (yamazakura; 0.05%) | Reproduction-inhibiting effect (warunasubi; 0.05%) | Reproduction-inhibiting effect (warunasubi; 0.1%) | Reproduction-inhibiting (kiichigo; 0.05%) | Reproduction-inhibiting effect (azumanezasa; 0.05%) | Reproduction-inhibiting effect (yabugarashi; 0.05%) | Reproduction-inhibiting effect (yabugarashi; 0.1%) | Reproduction-inhibiting effect (hedge bindweed; 0.05%) | Reproduction-inhibiting effect (hedge bindweed; 0.1%) | Reproduction-inhibiting effect (hedge bindweed; 0.2%)
++: Reproduction-inhibiting (oak; 0.1%) | Reproduction-inhibiting (Japanese prickly ash; 0.1%) | Reproduction-inhibiting (Japanese bush cranberry; 0.1%) | Reproduction-inhibiting (Japanese bush cranberry; 0.2%) | Reproduction-inhibiting effect (manna grass; 0.1%) | Reproduction-inhibiting effect (cockspar grass; 0.1%) | Reproduction-inhibiting effect (chigaya; 0.1%) | Reproduction-inhibiting (torch azalea; 0.1%) | Reproduction-inhibiting (lace shrub; 0.1%) | Reproduction-inhibiting (yamazakura; 0.1%) | Reproduction-inhibiting (kiichigo; 0.1%) | Reproduction-inhibiting effect (yabugarashi; 0.2%)

CP(=O)(O)CCC(N)C(=O)O (racemic) [DL-AMPB monoisopropylammonium salt]
++: Reproduction-inhibiting effect (water hyacinth; 0.1%)
±: Reproduction-inhibiting effect (water hyacinth; 0.2%)

From patent publication US4226610A, “Herbicidal compounds, preparation thereof and herbicides containing the same” (Meiji Selka Kaisha, Ltd., priority 1978, dated 1980)
